From paper PMC7022378, “Structural Analyses on the Deamidation of N-Terminal Asn in the Human N-Degron Pathway” (Biomolecules, 2020)
Changes are numbered by the printed parent chain.

Legend:
NTAN1 H92A = biological target: T1, NTAN1 H92A (Homo sapiens, UniProt Q96AB6, H92A); experiment: In vitro deamidation assay, NTAN1 H92A mutant; assay type: biochemical; conditions: substrate NRAAA, 100 μM, 37 °C, pH 7.0, LC-MS; vs wild-type (Figure 1f); three independent experiments
T1 construct: The gene for full-length NTAN1 was cloned into pET-21a(+); made in house; host or cells: E. coli Rosetta 2(DE3)
T1 sequence (Q96AB6 1-310 H92A): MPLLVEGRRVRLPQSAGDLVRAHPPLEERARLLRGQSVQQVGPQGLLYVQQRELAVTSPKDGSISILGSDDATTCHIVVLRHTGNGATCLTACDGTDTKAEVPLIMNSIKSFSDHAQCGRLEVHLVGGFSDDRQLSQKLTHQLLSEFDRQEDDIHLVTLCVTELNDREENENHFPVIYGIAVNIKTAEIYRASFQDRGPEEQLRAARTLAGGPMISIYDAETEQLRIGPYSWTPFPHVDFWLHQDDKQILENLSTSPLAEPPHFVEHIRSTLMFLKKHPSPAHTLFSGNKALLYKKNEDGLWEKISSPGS
Excerpt: (§1) NTAN1 mutants were constructed using QuikChange Ⅱ Site-Directed Mutagenesis Kit (Agilent Technologies, Santa Clara, CA, USA). NTAN1 mutants, Q51A, S69A, T73A, T74A, C75A, H92A, S254A, T255A, and E260A were generated. The mutants were expressed and purified as for NTAN1.
(§2) Peptides with Nt-Asn which mimic potential substrates of NTAN1 were synthesized: NRA, NRAA, NRAAA, NRQVA, NRQVAA, NRQVAAA, NFAAR, NLAAR, NRAAR, NAAAR, NNAAR, NPAAR, NGAAR, and NDAAR. Non-Nt-Asn peptides, QRAAA and VRAAA, were also synthesized. NTAN1 (at concentrations of 0.5 μM, 0.16 μM, or 0.04 μM) and the peptides (at a concentration of 100 μM) were mixed and incubated at 37 °C in a buffer containing 200 mM NaCl and 10 mM HEPES-NaOH (pH 7.0). […] The deamidation coefficient of peptides catalyzed by NTAN1 was assessed by the slope of exponential curve drawn from the concentration of the substrate over incubation time.
(§3) The peptides were quantified by an LC-MS system (1260 Infinity/6430 Triple Quad, Agilent Technologies) equipped with a binary pump (G1312B), a thermostated column compartment (G1316C), a thermostat (G1330B), and an autosampler (G1367E). […] The data acquisition and processing were performed by using MassHunter Workstation Software Quantitative Analysis (Version B.05.00; Agilent Technologies, Santa Clara, CA, USA). […]

NTAN1 T73A = biological target: T2, NTAN1 T73A (Homo sapiens, UniProt Q96AB6, T73A); experiment: In vitro deamidation assay, NTAN1 T73A mutant; assay type: biochemical; conditions: substrate NRAAA, 100 μM, 37 °C, pH 7.0, LC-MS (Figure 3g); three independent experiments
T2 construct: The gene for full-length NTAN1 was cloned into pET-21a(+); made in house; host or cells: E. coli Rosetta 2(DE3)
T2 sequence (Q96AB6 1-310 T73A): T1 sequence (Q96AB6 1-310 H92A) with T73A, A92H
Excerpt: as §1, §2, §3

NTAN1 S69A = experiment: In vitro deamidation assay, NTAN1 S69A mutant; assay type: biochemical, human; conditions: substrate NRAAA, 100 μM, 37 °C, pH 7.0, LC-MS (Figure 1d); three independent experiments
Excerpt: as §1, §2, §3

NTAN1 E260A = biological target: T3, NTAN1 E260A (Homo sapiens, UniProt Q96AB6, E260A); experiment: In vitro deamidation assay, NTAN1 E260A mutant; assay type: biochemical; conditions: substrate NRAAA, 100 μM, 37 °C, pH 7.0, LC-MS (Figure 3d); three independent experiments
T3 construct: The gene for full-length NTAN1 was cloned into pET-21a(+); made in house; host or cells: E. coli Rosetta 2(DE3)
T3 sequence (Q96AB6 1-310 E260A): T1 sequence (Q96AB6 1-310 H92A) with A92H, E260A
Excerpt: as §1, §2, §3

NTAN1 T74A = biological target: T4, NTAN1 T74A (Homo sapiens, UniProt Q96AB6, T74A); experiment: In vitro deamidation assay, NTAN1 T74A mutant; assay type: biochemical; conditions: substrate NRAAA, 100 μM, 37 °C, pH 7.0, LC-MS (Figure 3f); three independent experiments
T4 construct: The gene for full-length NTAN1 was cloned into pET-21a(+); made in house; host or cells: E. coli Rosetta 2(DE3)
T4 sequence (Q96AB6 1-310 T74A): T1 sequence (Q96AB6 1-310 H92A) with T74A, A92H
Excerpt: as §1, §2, §3

## NRAAA [synthesized peptide with Nt-Asn, 5 mer model substrate of NTAN1]
NTAN1 H92A
  Deamidation activity of NTAN1 H92A: completely abolished
NTAN1 T73A
  Enzymatic activity of NTAN1 T73A: abolished
NTAN1 S69A
  Fold lower deamidation activity of NTAN1 S69A than wild-type NTAN1: approximately 5 fold
NTAN1 E260A
  Deamidation activity of NTAN1 E260A: lost its deamidation activity
NTAN1 T74A
  Enzymatic activity of NTAN1 T74A: abolished
